Patent US4698352A, “4-oxo-1,4-dihydronicotinic acid derivatives, salts thereof, and antibacterial agents containing the same” (Toyama Chemical Co., Ltd., priority 1982, dated 1987)
Values after ≈ are worked out from the molar mass of the structure shown. Like-named read-outs stand apart in the source and are kept apart here.

Experiments:
Assay in all cases: Antibacterial activity (MIC), agar dilution
Assay type in all cases: cell-based
[1] = test system: Ent. cloacae IID977; conditions: Ent. cloacae IID977, 10^6 cells per ml, 37° C., 20 hours
Text: (§1) The amount of bacteria inoculated was 10^4 cells per plate (10^6 cells per ml).

[2] = test system: Ps. aeruginosa S-68; conditions: Ps. aeruginosa S-68, 10^6 cells per ml, 37° C., 20 hours
Text: as §1

[3] = test system: Pro. vulgaris GN3027; conditions: Pro. vulgaris GN3027, 10^6 cells per ml, 37° C., 20 hours
Text: as §1

[4] = test system: E. coli TK-111; conditions: E. coli TK-111, 10^6 cells per ml, 37° C., 20 hours
Text: as §1

[5] = test system: Kl. pneumoniae Y-50; conditions: 10^6 cells per ml, 37° C.
Text: as §1

[6] = test system: Pro. mirabilis T-111; conditions: 37° C.
Text: as §1

[7] = test system: Pro. morganii T-216; conditions: 37° C.
Text: as §1

[8] = test system: Ps. aeruginosa IFO3445; conditions: Ps. aeruginosa IFO3445, 10^6 cells per ml, 37° C., 20 hours
Text: as §1

[9] = test system: Kl. pneumoniae Y-41; conditions: 37° C., 20 hours
Text: as §1

[10] = test system: E. coli NIHJ JC-2; conditions: E. coli NIHJ JC-2, 10^6 cells per ml, 37° C., 20 hours
Text: as §1

[11] = test system: St. aureus FDA209P; conditions: St. aureus FDA209P, 10^6 cells per ml, 37° C., 20 hours
Text: as §1

[12] = test system: Aci. antitratus A-6; conditions: Aci. antitratus A-6, 10^6 cells per ml, 37° C., 20 hours
Text: as §1

[13] = test system: E. coli GN5482**; conditions: E. coli GN5482, cephalospolinase-producing, 10^6 cells per ml
Text: as §1
(§2) ** Cephalospolinase-producing bacteria

[14] = test system: Ps. aeruginosa GN918**; conditions: Pseudomonas aeruginosa, Ps. aeruginosa GN918, cephalospolinase-producing, 10^6 cells per ml
Text: as §1, §2

[15] = test system: Pro. vulgaris GN76**; conditions: Pro. vulgaris GN76, cephalospolinase-producing, 10^6 cells per ml
Text: as §1, §2

[16] = test system: Kl. pneumoniae Y-4*; conditions: Kl. pneumoniae Y-4, penicillinase-producing, 10^6 cells per ml
Text: as §1
(§3) * Penicillinase-producing bacteria

[17] = test system: E. coli TK-3*; conditions: E. coli TK-3, penicillinase-producing, 10^6 cells per ml
Text: as §1, §3

[18] = test system: Ps. aeruginosa GN3379*; conditions: Ps. aeruginosa GN3379, penicillinase-producing, 10^6 cells per ml
Text: as §1, §3

[19] = test system: St. aureus F-137*; conditions: St. aureus F-137, penicillinase-producing, 10^6 cells per ml
Text: as §1, §3

[20] = Morganella morganii, T216, 10^6 cells per ml, 20 hours, read-out: MIC
[21] = Enterobacter cloacae, IID977, 20 h, read-out: MIC
[22] = Pseudomonas aeruginosa, S68, read-out: MIC
[23] = Proteus vulgaris, GN3027, 20 h, read-out: MIC
[24] = Escherichia coli, TK111, 20 h, read-out: MIC
[25] = Klebsiella pneumoniae, Y50, 20 h
[26] = Pseudomonas aeruginosa, read-out: MIC
[27] = Klebsiella pneumoniae, Y41, 10^6 cells per ml, read-out: MIC
[28] = Escherichia coli, NIHJJC2, 20 h, read-out: MIC
[29] = Staphylococcus aureus, FDA209P, 20 h, read-out: MIC
[30] = Escherichia coli, 20 h, read-out: MIC
[31] = Proteus vulgaris, 20 h, read-out: MIC
[32] = Klebsiella pneumoniae, 20 h, read-out: MIC
[33] = Pseudomonas aeruginosa, 20 h, read-out: MIC
[34] = Staphylococcus aureus, 20 h, read-out: MIC

Row | Structure (SMILES) | MIC [1] | MIC [2] | MIC [3] | MIC [4] | MIC ([5]; 20 hours) | MIC ([6]; 10^6 cells per ml, 20 hours) | MIC [8] | MIC ([9]; 10^6 cells per ml) | MIC [10] | MIC [11] | MIC [12] | MIC [13] | MIC [15] | MIC [16] | MIC [17] | MIC [19] | MIC [7, 20] | MIC ([14]; 20 h, read-out: MIC) | MIC [1, 21] | MIC [2, 22] | further results
1 | CC(=O)Oc1ccc(-n2cc(C(=O)OCCN(C)C)c(=O)cc2-c2ccc(N(C)C)cc2)cc1 [drawing 38] | 1.56 µg/mL (≈ 3.37 µM) | 6.25 µg/mL (≈ 13.5 µM) | 0.39 µg/mL (≈ 0.841 µM) | 0.2 µg/mL (≈ 0.431 µM) | 0.78 µg/mL (≈ 1.68 µM) | 6.25 µg/mL (≈ 13.5 µM) | 12.5 µg/mL (≈ 27 µM) | 3.13 µg/mL (≈ 6.75 µM) | 0.39 µg/mL (≈ 0.841 µM) | 0.39 µg/mL (≈ 0.841 µM) | 0.39 µg/mL (≈ 0.841 µM) | ≤ 0.05 µg/mL | 1.56 µg/mL (≈ 3.37 µM) | 6.25 µg/mL (≈ 13.5 µM) | 1.56 µg/mL (≈ 3.37 µM) | 0.39 µg/mL (≈ 0.841 µM) | – | – | – | – | MIC ([7]; 10^6 cells per ml, 20 hours): 3.13 µg/mL (≈ 6.75 µM); MIC ([14]; GN918, 20 h): 3.13 µg/mL (≈ 6.75 µM); MIC [18]: 12.5 µg/mL (≈ 27 µM)
2 | CC(=O)Oc1ccc(-n2cc(C(=O)OCCN(C)C)c(=O)cc2-c2ccc(N(C)C)cc2)cc1 [drawing 67] | 0.78 µg/mL (≈ 1.68 µM) | 6.25 µg/mL (≈ 13.5 µM) | 0.2 µg/mL (≈ 0.431 µM) | 0.1 µg/mL (≈ 0.216 µM) | 0.39 µg/mL (≈ 0.841 µM) | 3.13 µg/mL (≈ 6.75 µM) | 12.5 µg/mL (≈ 27 µM) | 3.13 µg/mL (≈ 6.75 µM) | 0.2 µg/mL (≈ 0.431 µM) | 0.2 µg/mL (≈ 0.431 µM) | 0.2 µg/mL (≈ 0.431 µM) | ≤ 0.05 µg/mL | 1.56 µg/mL (≈ 3.37 µM) | 3.13 µg/mL (≈ 6.75 µM) | 0.78 µg/mL (≈ 1.68 µM) | 0.2 µg/mL (≈ 0.431 µM) | 1.56 µg/mL (≈ 3.37 µM) | 1.56 µg/mL (≈ 3.37 µM) | – | – | MIC ([18]; Pseudomonas aeruginosa, GN3379, 20 h): 6.25 µg/mL (≈ 13.5 µM)
3 | O=C(O)c1cn(-c2ccc(F)cc2)c(C=Cc2cccnc2)cc1=O [drawing 205] | – | – | – | – | – | – | – | – | – | – | – | – | – | – | – | – | – | 12.5 µg/mL (≈ 37.2 µM) | 3.13 µg/mL (≈ 9.31 µM) | 12.5 µg/mL (≈ 37.2 µM) | MIC [3, 23]: 0.39 µg/mL (≈ 1.16 µM); MIC [4, 24]: 0.78 µg/mL (≈ 2.32 µM); MIC [5, 25]: 0.78 µg/mL (≈ 2.32 µM); MIC ([6]; Proteus mirabilis, T111, 10^6 cells per ml, 20 hours, read-out: MIC): 12.5 µg/mL (≈ 37.2 µM); MIC ([7]; Morganella morganii, T216, 20 h, 10^6 cells per ml): 6.25 µg/mL (≈ 18.6 µM); MIC [8, 26]: 25 µg/mL (≈ 74.3 µM); MIC [9, 27]: 6.25 µg/mL (≈ 18.6 µM); MIC [10, 28]: 1.56 µg/mL (≈ 4.64 µM); MIC [11, 29]: 3.13 µg/mL (≈ 9.31 µM); MIC ([12]; 20 h, read-out: MIC): 3.13 µg/mL (≈ 9.31 µM); MIC [13, 30]: 0.2 µg/mL (≈ 0.595 µM); MIC [15, 31]: 1.56 µg/mL (≈ 4.64 µM); MIC [16, 32]: 6.25 µg/mL (≈ 18.6 µM); MIC [17, 30]: 3.13 µg/mL (≈ 9.31 µM); MIC [18, 33]: 25 µg/mL (≈ 74.3 µM); MIC [19, 34]: 3.13 µg/mL (≈ 9.31 µM)
4 | CN(C)c1ccc(-c2cc(=O)c(C(=O)O)cn2-c2ccc(O)cc2)cc1 [drawing 206] | – | – | – | – | – | – | – | – | – | – | – | – | – | – | – | – | 0.78 µg/mL (≈ 2.23 µM) | 1.5 µg/mL (≈ 4.28 µM) | 0.39 µg/mL (≈ 1.11 µM) | 3.13 µg/mL (≈ 8.93 µM) | MIC [3, 23]: 0.1 µg/mL (≈ 0.285 µM); MIC [4, 24]: 0.05 µg/mL (≈ 0.143 µM); MIC [5, 25]: 0.2 µg/mL (≈ 0.571 µM); MIC ([6]; Proteus mirabilis, T111, 20 h, 10^6 cells per ml): 1.56 µg/mL (≈ 4.45 µM); MIC [8, 26]: 3.13 µg/mL (≈ 8.93 µM); MIC [9, 27]: 0.78 µg/mL (≈ 2.23 µM); MIC [10, 28]: 0.2 µg/mL (≈ 0.571 µM); MIC [11, 29]: 0.2 µg/mL (≈ 0.571 µM); MIC ([12]; 20 h, read-out: MIC): 0.39 µg/mL (≈ 1.11 µM); MIC [13, 30]: 0.05 µg/mL (≈ 0.143 µM); MIC [15, 31]: 0.39 µg/mL (≈ 1.11 µM); MIC [16, 32]: 1.56 µg/mL (≈ 4.45 µM); MIC [17, 30]: 0.39 µg/mL (≈ 1.11 µM); MIC [18, 33]: 3.13 µg/mL (≈ 8.93 µM); MIC [19, 34]: 0.1 µg/mL (≈ 0.285 µM)
